Source: US20200068890A1 (Person to Whom the Inventor is Obligated to Assign, priority 2017, published 2020)
Like-named read-outs stand apart in the source and are kept apart here.

Key:
A. thaliana DHDPS = test system: T1, A. thaliana DHDPS; assay: DHDPS-DHDPR coupled assay, dose response inhibitor assay; assay type: biochemical, Arabidopsis thaliana
T1 construct: AtDHDPS|10|0.00008; no borders, domain or tags given
Protocol: DHDPS enzyme activity was determined using the coupled assay in a Cary 4000 UV/Vis spectrophotometer at 340 nm in 1 cm acrylic cuvettes. A master mix was prepared for each reaction as per Table 1. Reaction mixtures containing enzymes, pyruvate, buffer and NADPH were incubated at 30° C. for 12 mins before the addition of ASA to initiate the reaction. The oxidation of NADPH to NADP^+ was then monitored at 340 nm at 30° C. as a function of time. The initial rate (ΔA340·min^−1) was calculated from the slope of the linear portion of the A340 versus time profile. All experiments were carried out in triplicate. The enzyme kinetic parameters, including KM values, were determined using the Michaelis-Menten equation (Equation 1). Unless otherwise stated, all kinetic data were fitted using the built-in equations in GraphPad Prism.
To determine/C50 values for the inhibitors, A. thaliana DHDPS enzyme activity was measured using the coupled assay (detailed above) in the presence of increasing concentrations of inhibitor. The initial rate was then plotted as a function of the log 10 of the inhibitor concentration and the/C50 determined according to Equation 2.

[1] = test system: human kidney cells (HEK293); assay: MTT viability assay; conditions: for % Viability Remaining 1 / % Viability Remaining 2 / % Viability Remaining 3: 48 hrs
Protocol: (§1) Cells were harvested and resuspended in growth media (5-10 ml) to count. Cells were diluted to the appropriate concentration (5×10^3), and seeded into 96-well plates as follows: (a) 50 μl of cells per well, (b) 100 μl of growth media in the Blank wells, (c) 100 μl PBS in outer wells (to prevent dehydration of media from the cells). Cells were incubated overnight at 37° C. (5% CO2).
(§2) Compounds were prepared as serial dilutions in growth media. Each treatment concentration was performed in triplicate. 50 μl/well of prepared compound was added to cells.
(§3) A no treatment triplicate (100% viability) was also included by adding 50 μl of growth media to cells. Plates were returned to the incubator for 48 hrs.
(§4) MTT powder in 1×PBS was prepared at 5 mg/ml and filter sterilised. MTT was added to serum-free media to a final concentration of 1 mg/ml. 100 μl of the MTT solution (1 mg/ml) was added to each well, including 0 μM and blank wells. Plates were incubated at 37° C. in incubator for 3 hrs. Following incubation, the media was removed from wells without disrupting the purple crystals formed. 100 μl of DMSO was added to each well using a multichannel pipette. The plates were shaken on the plate shaker until all the crystals have dissolved. The absorbance was measured at 570 nm using a plate reader. The data was analysed using Microsoft Excel. For each treatment concentration the average was calculated, the blank was subtracted and the cell viability was determined as a percentage of the no treatment control (DMSO vehicle control).

[2] = test system: human liver cells (HepG2); assay: MTT viability assay; conditions: for % viability 1 / % viability 2 / % viability 3: 48 hrs
Protocol: as §1, §2, §3, §4

[3] = test system: Acinetobacter baumannii 17978; assay: Broth microdilution MIC; assay type: cell-based
Protocol: (§5) Assays were carried out by a broth microdilution method using a 96-well plate according to guidelines defined by the European Committee on Antimicrobial Susceptibility Testing as described here. Overnight cultures of strains were grown in tryptic soy broth (TSB) at 37° C. The overnight cultures were diluted to a concentration of 1×10^6 bacteria/ml (OD600=0.01) in TSB media. To each well on 96 well plates, 100 μl of bacterially infected media at a concentration of 1×10^6/ml and compounds at various concentrations were added. An uninfected control (i.e. no bacteria) was also included. The plates were incubated at 37° C. wrapped in parafilm for 20 hrs. The growth was assessed by measuring the absorbance at 600 nm. The minimum inhibitory concentration (MIC) was determined to be the lowest concentration of compound that inhibits visible bacterial growth.

[4] = test system: Acinetobacter baumannii AYE; assay: Broth microdilution MIC; assay type: cell-based
Protocol: as §5

EMRSA-15 = assay: Broth microdilution MIC; assay type: cell-based
Protocol: as §5

EMRSA-16 = assay: Broth microdilution MIC; assay type: cell-based
Protocol: as §5

[5] = test system: Enterococcus faecalis 12201; assay: Broth microdilution MIC; assay type: cell-based
Protocol: as §5

[6] = test system: Enterococcus faecalis 775; assay: Broth microdilution MIC; assay type: cell-based
Protocol: as §5

[7] = test system: Enterococcus faecium 12204; assay: Broth microdilution MIC; assay type: cell-based
Protocol: as §5

[8] = test system: Escherichia coli NCTC12923; assay: Broth microdilution MIC; assay type: cell-based
Protocol: as §5

[9] = test system: Klebsiella pneumoniae 13368; assay: Broth microdilution MIC; assay type: cell-based
Protocol: as §5

Klebsiella pneumoniae M6 = assay: Broth microdilution MIC; assay type: cell-based
Protocol: as §5

MSSA 9144 = assay: Broth microdilution MIC; assay type: cell-based; conditions: Staphylococcus aureus
Protocol: as §5

[10] = test system: Pseudomonas aeruginosa 13437; assay: Broth microdilution MIC; assay type: cell-based
Protocol: as §5

[11] = test system: Pseudomonas aeruginosa PA01; assay: Broth microdilution MIC; assay type: cell-based
Protocol: as §5

[12] = test system: Gram-positive and Gram-negative bacterial species; assay: Broth microdilution MIC, panel summary; assay type: cell-based; conditions: read-out: MIC values
Protocol: as §5

## COc1ccc(/C=C2\NC(=O)N(CC(=O)O)C2=O)cc1 [Compound 42, (Z)-2-(4-(4-Methoxybenzylidene)-2,5-dioxoimidazolidin-1-yl)acetic Acid]
A. thaliana DHDPS
  IC50: 66.1 µM
[1]; HEK293, 12.5 μM
  % Viability Remaining 1: 104%
  % Viability Remaining 2: 93.9%
  % Viability Remaining 3: 87.6%
[1]; HEK293, 25 μM
  % Viability Remaining 1: 110%
  % Viability Remaining 2: 93.9%
  % Viability Remaining 3: 87.6%
[1]; HEK293, 50 μM
  % Viability Remaining 1: 80.6%
  % Viability Remaining 2: 94.5%
  % Viability Remaining 3: 98.9%
[1]; HEK293, 100 μM
  % Viability Remaining 1: 110%
  % Viability Remaining 2: 107%
  % Viability Remaining 3: 115%
[1]; HEK293, 200 μM
  % Viability Remaining 1: 94.0%
  % Viability Remaining 2: 99.6%
  % Viability Remaining 3: 94.1%
[1]; HEK293, 400 μM
  % Viability Remaining 1: 105%
  % Viability Remaining 2: 103%
  % Viability Remaining 3: 80.9%
[1]; HEK293, MTT, up to 400 μM (Defensin 100 μM)
  toxicity to HEK293 cells (in words): effectively nontoxic
[2]; HepG2, 12.5 μM
  % viability 1: 81.0%
  % viability 2: 99.1%
  % viability 3: 70.9%
[2]; HepG2, 25 μM
  % viability 1: 81.0%
  % viability 2: 99.1%
  % viability 3: 70.9%
[2]; HepG2, 50 μM
  % viability 1: 88.8%
  % viability 2: 98.3%
  % viability 3: 90.4%
[2]; HepG2, 100 μM
  % viability 1: 88.0%
  % viability 2: 86.0%
  % viability 3: 84.1%
[2]; HepG2, 200 μM
  % viability 1: 98.4%
  % viability 2: 101%
  % viability 3: 82.4%
[2]; HepG2, 400 μM
  % viability 1: 80.9%
  % viability 2: 82.9%
  % viability 3: 82.1%
[2]; HepG2, MTT, up to 400 μM (Defensin 100 μM)
  toxicity to HepG2 cells (in words): effectively nontoxic

## O=C(O)CN1C(=O)S/C(=C\c2ccc(F)cc2)C1=O [Compound 1, (Z)-2-(5-(4-Fluorobenzylidene)-2,4-dioxothiazolidin-3-yl)acetic Acid]
A. thaliana DHDPS
  IC50: 92.4 µM
[3]; Acinetobacter baumannii 17978, replicate 1, read-out: MIC #1
  MIC: > 64 µg/mL
[3]; Acinetobacter baumannii 17978, replicate 2, read-out: MIC #2
  MIC: > 64 µg/mL
[3]; Acinetobacter baumannii 17978, replicate 3, read-out: MIC #3
  MIC: > 64 µg/mL
[4]; replicate 1, read-out: MIC #1
  MIC: > 64 µg/mL
[4]; replicate 2, read-out: MIC #2
  MIC: > 64 µg/mL
[4]; replicate 3, read-out: MIC #3
  MIC: > 64 µg/mL
EMRSA-15; EMRSA-15, replicate 1, read-out: MIC #1
  MIC: > 64 µg/mL
EMRSA-15; EMRSA-15, replicate 2, read-out: MIC #2
  MIC: > 64 µg/mL
EMRSA-15; EMRSA-15, replicate 3, read-out: MIC #3
  MIC: > 64 µg/mL
EMRSA-16; EMRSA-16, replicate 1, read-out: MIC #1
  MIC: > 64 µg/mL
EMRSA-16; EMRSA-16, replicate 2, read-out: MIC #2
  MIC: > 64 µg/mL
EMRSA-16; EMRSA-16, replicate 3, read-out: MIC #3
  MIC: > 64 µg/mL
[5]; Enterococcus faecalis 12201, replicate 1, read-out: MIC #1
  MIC: > 64 µg/mL
[5]; Enterococcus faecalis 12201, replicate 2, read-out: MIC #2
  MIC: > 64 µg/mL
[5]; Enterococcus faecalis 12201, replicate 3, read-out: MIC #3
  MIC: > 64 µg/mL
[6]; Enterococcus faecalis 775, replicate 1, read-out: MIC #1
  MIC: > 64 µg/mL
[6]; Enterococcus faecalis 775, replicate 2, read-out: MIC #2
  MIC: > 64 µg/mL
[6]; Enterococcus faecalis 775, replicate 3, read-out: MIC #3
  MIC: > 64 µg/mL
[7]; Enterococcus faecium 12204, replicate 1, read-out: MIC #1
  MIC: > 64 µg/mL
[7]; Enterococcus faecium 12204, replicate 2, read-out: MIC #2
  MIC: > 64 µg/mL
[7]; Enterococcus faecium 12204, replicate 3, read-out: MIC #3
  MIC: > 64 µg/mL
[8]; Escherichia coli NCTC12923, replicate 1, read-out: MIC #1
  MIC: > 64 µg/mL
[8]; Escherichia coli NCTC12923, replicate 2, read-out: MIC #2
  MIC: > 64 µg/mL
[8]; Escherichia coli NCTC12923, replicate 3, read-out: MIC #3
  MIC: > 64 µg/mL
[9]; Klebsiella pneumoniae 13368, replicate 1, read-out: MIC #1
  MIC: > 64 µg/mL
[9]; Klebsiella pneumoniae 13368, replicate 2, read-out: MIC #2
  MIC: > 64 µg/mL
[9]; Klebsiella pneumoniae 13368, replicate 3, read-out: MIC #3
  MIC: > 64 µg/mL
Klebsiella pneumoniae M6; Klebsiella pneumoniae M6, replicate 1, read-out: MIC #1
  MIC: > 64 µg/mL
Klebsiella pneumoniae M6; Klebsiella pneumoniae M6, replicate 2, read-out: MIC #2
  MIC: > 64 µg/mL
Klebsiella pneumoniae M6; Klebsiella pneumoniae M6, replicate 3, read-out: MIC #3
  MIC: > 64 µg/mL
MSSA 9144; MSSA 9144, replicate 1, read-out: MIC #1
  MIC: > 64 µg/mL
MSSA 9144; MSSA 9144, replicate 2, read-out: MIC #2
  MIC: > 64 µg/mL
MSSA 9144; MSSA 9144, replicate 3, read-out: MIC #3
  MIC: > 64 µg/mL
[10]; Pseudomonas aeruginosa 13437, replicate 1, read-out: MIC #1
  MIC: > 64 µg/mL
[10]; Pseudomonas aeruginosa 13437, replicate 2, read-out: MIC #2
  MIC: > 64 µg/mL
[10]; Pseudomonas aeruginosa 13437, replicate 3, read-out: MIC #3
  MIC: > 64 µg/mL
[11]; Pseudomonas aeruginosa PA01, replicate 1, read-out: MIC #1
  MIC: > 64 µg/mL
[11]; Pseudomonas aeruginosa PA01, replicate 2, read-out: MIC #2
  MIC: > 64 µg/mL
[11]; Pseudomonas aeruginosa PA01, replicate 3, read-out: MIC #3
  MIC: > 64 µg/mL
[12]
  MIC: > 64 µg/mL

## O=C(O)CN1C(=O)S/C(=C\c2ccccc2)C1=O [Compound 2, (Z)-2-(5-Benzylidene-2,4-dioxothiazolidin-3-yl)acetic Acid]
A. thaliana DHDPS
  IC50: 80.1 µM
